In PubChem BioAssay (NCI):
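Five concentrations, 48 hours, 96-well plates. GI50: concentration for 50% inhibition of growth. The concentration for full growth arrest is given as TGI.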

Experiments:
Assay in all cases: growth of human tumour cells (NCI), 48 h
[1] = tested on: MOLT-4 leukemia
[2] = tested on: HOP-92 NSCLC
[3] = tested on: DU-145 prostate
[4] = tested on: IGROV1 ovarian
[5] = tested on: NCI-H23 lung
[6] = tested on: SNB-19 CNS
[7] = tested on: T-47D breast
[8] = tested on: SF-295 CNS
[9] = tested on: RXF 393 renal
[10] = tested on: COLO 205 colon
[11] = tested on: HOP-62 NSCLC
[12] = tested on: SK-OV-3 ovarian
[13] = tested on: OVCAR-5 ovarian
[14] = tested on: UO-31 renal
[15] = tested on: CCRF-CEM leukemia
[16] = tested on: UACC-257 melanoma
[17] = tested on: NCI-H522 lung
[18] = tested on: SW-620 colon
[19] = tested on: SK-MEL-5 melanoma
[20] = tested on: SNB-75 CNS
[21] = tested on: CAKI-1 renal
[22] = tested on: SR leukemia
[23] = tested on: SF-268 CNS
[24] = tested on: TK-10 renal
[25] = tested on: ACHN renal
[26] = tested on: LOX IMVI melanoma
[27] = tested on: SK-MEL-2 melanoma
[28] = tested on: NCI-H226 lung
[29] = tested on: RPMI-8226 leukemia
[30] = tested on: NCI-H460 lung
[31] = tested on: HS 578T breast
[32] = tested on: SF-539 CNS
[33] = tested on: KM12 colon
[34] = tested on: PC-3 prostate
[35] = tested on: BT-549 breast
[36] = tested on: MDA-MB-468 breast
[37] = tested on: HCT-116 colon
[38] = tested on: A549 NSCLC
[39] = tested on: NCI/ADR-RES ovarian
[40] = tested on: OVCAR-4 ovarian
[41] = tested on: HT29 colon
[42] = tested on: OVCAR-3 ovarian
[43] = tested on: MCF7 breast
[44] = tested on: K-562 leukemia
[45] = tested on: 786-0 renal
[46] = tested on: HL-60(TB) leukemia
[47] = tested on: HCC-2998 colon
[48] = tested on: MDA-MB-231 breast
[49] = tested on: HCT-15 colon
[50] = tested on: EKVX NSCLC
[51] = tested on: SN12C renal
[52] = tested on: OVCAR-8 ovarian
[53] = tested on: MDA-MB-435
[54] = tested on: A498 renal
[55] = tested on: MALME-3M melanoma
[56] = tested on: SK-MEL-28 melanoma
[57] = tested on: M14 melanoma
[58] = tested on: UACC-62 melanoma
[59] = tested on: U251 CNS

`CC(=O)N1CCN(Cc2ccc3c(NNC(=O)c4cnccn4)nc4cc(F)ccc4n23)CC1` showed a GI50 [1] of 387 nM, a TGI [1] of 15500 nM and a GI50 [2] of 331 nM. It also gave a TGI [2] of 14600 nM, a GI50 [3] of 873 nM and a TGI [3] of over 100000 nM. The GI50 [4] was 784 nM, the TGI [4] was over 52900 nM and the GI50 [5] was 909 nM. It also gave a TGI [5] of 13200 nM, a GI50 [6] of 1200 nM and a TGI [6] of over 100000 nM. The GI50 [7] was 1700 nM, the TGI [7] was 36800 nM and the GI50 [8] was 290 nM. It also gave a TGI [8] of 29900 nM, a GI50 [9] of 1450 nM and a TGI [9] of 12400 nM. The GI50 [10] was 436 nM, the TGI [10] was 11400 nM and the GI50 [11] was 410 nM. The TGI [11] was 23600 nM, the GI50 [12] was 492 nM and the TGI [12] was 13700 nM. It also gave a GI50 [13] of 1090 nM, a TGI [13] of 24400 nM and a GI50 [14] of 163 nM. The TGI [14] was 7660 nM, the GI50 [15] was 374 nM and the TGI [15] was 10600 nM. It also gave a GI50 [16] of 1680 nM, a TGI [16] of 10500 nM and a GI50 [17] of 1260 nM. The TGI [17] was 15700 nM, the GI50 [18] was 633 nM and the TGI [18] was over 63000 nM. For the same compound, the GI50 [19] was 605 nM, the TGI [19] was 4980 nM and the GI50 [20] was 1390 nM. The TGI [20] was 99300 nM, the GI50 [21] was 477 nM and the TGI [21] was 18800 nM. The GI50 [22] was 389 nM, the TGI [22] was 10700 nM and the GI50 [23] was 609 nM. For the same compound, the TGI [23] was over 100000 nM, the GI50 [24] was 304 nM and the TGI [24] was 45700 nM. It also gave a GI50 [25] of 311 nM, a TGI [25] of 12300 nM and a GI50 [26] of 371 nM. For the same compound, the TGI [26] was 3090 nM, the GI50 [27] was 1280 nM and the TGI [27] was 11400 nM. It also gave a GI50 [28] of 742 nM, a TGI [28] of 11200 nM and a GI50 [29] of 823 nM. For the same compound, the TGI [29] was over 39700 nM, the GI50 [30] was 408 nM and the TGI [30] was over 36000 nM. The GI50 [31] was 13200 nM, the TGI [31] was over 100000 nM and the GI50 [32] was 787 nM. For the same compound, the TGI [32] was 6040 nM, the GI50 [33] was 537 nM and the TGI [33] was over 81300 nM. For the same compound, the GI50 [34] was 525 nM, the TGI [34] was over 52400 nM and the GI50 [35] was 995 nM. The TGI [35] was 19600 nM, the GI50 [36] was 525 nM and the TGI [36] was 3390 nM. For the same compound, the GI50 [37] was 309 nM, the TGI [37] was 18800 nM and the GI50 [38] was 596 nM. The TGI [38] was 17500 nM, the GI50 [39] was 1170 nM and the TGI [39] was 12300 nM. For the same compound, the GI50 [40] was 640 nM, the TGI [40] was 41700 nM and the GI50 [41] was 501 nM. The TGI [41] was 21000 nM, the GI50 [42] was 724 nM and the TGI [42] was 30500 nM. For the same compound, the GI50 [43] was 898 nM, the TGI [43] was 31200 nM and the GI50 [44] was 753 nM. For the same compound, the TGI [44] was 33500 nM, the GI50 [45] was 342 nM and the TGI [45] was 6550 nM. For the same compound, the GI50 [46] was 461 nM, the TGI [46] was 4540 nM and the GI50 [47] was 960 nM. For the same compound, the TGI [47] was 19000 nM, the GI50 [48] was 736 nM and the TGI [48] was 25200 nM. For the same compound, the GI50 [49] was 197 nM, the TGI [49] was 19000 nM and the GI50 [50] was 312 nM. The TGI [50] was 10300 nM, the GI50 [51] was 864 nM and the TGI [51] was over 100000 nM. The GI50 [52] was 454 nM, the TGI [52] was over 34100 nM and the GI50 [53] was 1510 nM. The TGI [53] was over 100000 nM, the GI50 [54] was 22700 nM and the TGI [54] was 37800 nM. The GI50 [55] was 1220 nM, the TGI [55] was 10900 nM and the GI50 [56] was 624 nM. The TGI [56] was 31600 nM, the GI50 [57] was 333 nM and the TGI [57] was 2240 nM. The GI50 [58] was 435 nM, the TGI [58] was 2210 nM and the GI50 [59] was 505 nM. The TGI [59] was 48700 nM.
